The conditions of data set [1]: both, Sprague Dawley, rat, in vivo, iv, 8 days.
Description: Single dosing MTD in rats • a. Sprague Dawley, male and female, 240-260 gram • b. Dosing at 0, 25, 50, 100, 200 mg/kg, iv infusion 5 min • c. 6 rats per group (3 male and 3 female)
Stock solution is diluted with 30% CAPTISOL before use.
Another data set relates to HDAC. The experiment in a line: Ac-H4 and Ac-H3 accumulation in MDA-MB-468 breast cancer cell line. Conditions: FIG. 2. It is filed as cell-based.
In the next data set the test system is EGFR. Nature of the data set: EGFR phosphorylation in MDA-MB-468 breast cancer cell line. The class given is cell-based. Conditions: FIG. 2. Here is the method: Allowed A431 cell growth in a T75 flask using standard tissue culture procedures until cells reach near confluency (˜1.5×10^7) cells; D-MEM, 10% FBS). Under sterile conditions dispensed 100 μl of the cell suspension per well in 96-well microplates (x cells plated per well). Incubated cells and monitor cell density until confluency is achieved with well-to-well consistency; approximately three days. Removed complete media from plate wells by aspiration or manual displacement. Replaced media with 50 μl of pre-warmed serum free media per well and incubated 4 to 16 hours. Made two fold serial dilutions of inhibitor using pre-warmed D-MEM so that the final concentration of inhibitor range from 10 μM to 90 pM. Removed media from A431 cell plate. Added 100 μl of serial diluted inhibitor into cells and incubate 1 to 2 hours. Removed inhibitor from plate wells by aspiration or manual displacement. Added either serum free media for resting cells (mock) or serum free media with 100 ng/ml EGF. Used 100 μl of resting/activation media per well. Allowed incubation at 37° C. for 7.5 minutes. Removed activation or stimulation media manually or by aspiration. Immediately fixed cells with 4% formaldehyde in 1×PBS. […] Determined the ratio of […] protein (700/800) using Odyssey software and plot the results in Graphpad Prism (V4.0a).

Another data set relates to A549 NSCLC. Nature of the data set: A549 NSCLC Xenograft model. It is filed as in vivo, mice. Conditions: compared with vehicle or control. The method, then: A representative protocol for the in vivo experiment is as followed:
1-10×10^6 human cancer cells were implanted subcutaneously to the athymic (nu/nu) mice. When the tumors reached about 100 mm^3 in volume, the mice were treated with the compound by tail vein infusion. Routinely 5 groups (8-12 mice per group) are needed for a typical efficacy study, including one negative control, one positive control, and three testing groups for 3 dose levels of the same compound. Usually a 7-7-5 (on-off-on) regimen was used for one typical study. The tumor size was measured with an electronic caliper and body weight measured with a scale twice weekly. The tumors were removed from euthanized mice at the end of the study. One half of each tumor was frozen in dry ice and stored at −80° C. for PK or Western blot analysis. The other half was fixed with formalin. The fixed tissues were processed, embedded in paraffin and sectioned for immunohistochemistry staining. Protocol for Radioisotope assay for HER2

Here are results for one compound from patent US8119616B2, “Formulation of quinazoline based EGFR inhibitors containing a zinc binding moiety” (Curis, Inc., priority 2007, dated 2012).

As to `C#Cc1cccc(Nc2ncnc3cc(OC)c(OCCCCCCC(=O)NO)cc23)c1` [Compound 12, 7-(4-(3-ethynylphenylamino)-7-methoxyquinazolin-6-yloxy)-N-hydroxyheptanamide], the “dose that did not result in a significant change in body weight” value in data set [1] is recorded as “up to 200 mg/kg”. The “inhibition of histone acetylation compared with SAHA” value in the data set on HDAC is “improvement in inhibition”. Moreover, in the data set with EGFR, the “inhibition of EGFR phosphorylation compared with Erlotinib” value is on record as “improvement in inhibition”. The “effect on tumor size / tumor growth” value with A549 NSCLC is “attenuated tumor growth”.
